Patent US20120270238A1, “Peptides That Bind the Alpha-Fetoprotein (AFP) Receptor and Uses Thereof” (priority 2009, published 2012)
Each block holds one molecule with its values, some of them ahead of it. No end group written: not given here. *: point of attachment. FITC = O=C1OC2(c3ccc(O)cc3Oc3cc(O)ccc32)c2ccc(NC(=S)*)cc21

Assays:
[1] = test system: cancer cell line that is known to have AFP receptors; experiment: Binding of FITC labelled peptide to cancer cells; type: cell-based; conditions: FITC at the N terminal; fluorescence; qualitative
[2] = test system: MCF-7 cells (human breast cancer cell line); experiment: Uptake of FITC labelled peptide into MCF-7 cells; type: cell-based; conditions: FITC fluorescence; qualitative
Excerpt: FIGS. 10A and B show the results of this experiment. […] This experiment provides evidence that the peptides according to the present invention provide for intracellular delivery of bioactive agents to the interior of cells expressing AFPr, particularly cancer cells.

[3] = test system: alpha-fetoprotein receptor present in MCF-7 cell extracts; experiment: Competitive ELISA with biotin labeled AFP on MCF-7 cell extract; type: binding, human; conditions: for inhibition (competition with AFP-biotin): constant AFP-biotin 0.5 μg/ml, plate coated with MCF-7 extract; for competition with biotin labeled AFP for the AFP receptor: qualitative, biotin labeled AFP 0.5 ug/ml
Experimental: To see if the enzymatic digests were still biologically active, the enzymatic digests were used in a competitive based ELISA with whole AFP molecule labeled with biotin. The ability of the enzymatic digest dilutions to compete for the alpha-fetoprotein receptor present in MCF-7 cell extracts was determined using a constant 0.5 ug/ml of biotin labeled AFP. […] This fragment was run on a gradient tricine gel, transferred to a PVDF membrane and sent for N terminal sequencing. Results gave the amino acid (AA) sequence V-N-P-G . . . corresponding to AA 493 to 496 of Human AFP as published in Uniprot Data base (FIG. 2).
A plate can be coated with an extract of a cancer cell line known to have AFP receptors (for example, MCF-7). The plate is coated at 100 ug/ml total protein concentration and the peptide to be tested and AFP biotin is mixed with an initial peptide concentration of 250 μg/ml and subsequent half dilutions made. […] (FIG. 3). This assay was repeated with subsequent peptides synthesized in order to determine the smallest amino acid chain that would compete along with other peptides not in this region of the AFP molecule as well as from a different species.

[4] = molecular target: alpha-fetoprotein receptor (AFP receptor) (human); experiment: competition assay, plate coated with MCF-7 extract, AFP-biotin constant at 0.5 µg/ml

Molecule: FITC labeled Fragment 4: Fragment 4 synthesized with FITC at the N terminal ({FITC}-LQTMKQEFLIN)
binding to cancer cells [1]: demonstrated binding
uptake into MCF-7 human breast cancer cells [2]: uptake

Molecule: HKDLCQAQGVALQTMKQEFLIN [Fragment 3, amino acids 534-555 of human AFP]
inhibition (competition with AFP-biotin) ([3]; peptide 7.8 μg/ml): 50%
inhibition (competition with AFP-biotin) ([3]; peptide 250 μg/ml): 85%
competition with biotin labeled AFP for the AFP receptor [3]: found to compete

Molecule: KQEFLIN [amino acids 549-555 of human AFP]
competition with biotin labeled AFP for the AFP receptor [3]: found to compete

% inhibition at 7.8 µg/ml [4]: 50%
% inhibition at 250 µg/ml [4]: 85%
Molecule: HKDLCQAQGVALQTMKQEFLIN [Fragment 3, …]
